Results reported in patent US9994551B2, “Pyridazine derivatives as RORc modulators” (Genentech, Inc., priority 2015, dated 2018).

Molecular target: T1, RORc ligand binding domain (Homo sapiens, UniProt P51449)
T1 construct: host or cells: E. coli
T1 sequence (P51449 269-508 limits assumed): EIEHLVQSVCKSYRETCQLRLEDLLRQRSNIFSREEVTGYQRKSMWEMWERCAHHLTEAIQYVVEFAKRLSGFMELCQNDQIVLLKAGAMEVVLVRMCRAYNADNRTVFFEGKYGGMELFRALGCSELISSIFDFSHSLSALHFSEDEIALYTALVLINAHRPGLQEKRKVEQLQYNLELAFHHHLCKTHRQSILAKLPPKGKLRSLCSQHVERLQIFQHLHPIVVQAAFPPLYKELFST
Assay: In vitro RORc ligand binding assay (25-[3H]hydroxycholesterol displacement, filter binding)

| Compound | IC50 [µM] |
| --- | --- |
| CC(C)(O)CNC(=O)CO[C@@]12CC[C@@H](c3cc(-c4c(F)cccc4F)nnc31)C2(C)C [Compound 48, 2-(((5S,8R)-3-(2,6-difluorophenyl)-9,9-dimethyl-5,6,7,8-tetrahydro-5,8-methanocinnolin-8-yl)oxy)-N-(2-hydroxy-2-methylpropyl)acetamide] | 0.0952 |
| CC1(C)[C@H]2CC[C@]1([C@@H]1CN(CC(F)F)CCO1)c1nnc(-c3c(F)cccc3F)cc12 [Compound 83, (R)-4-(2,2-difluoroethyl)-2-((5R,8R)-3-(2,6-difluorophenyl)-9,9-dimethyl-5,6,7,8-tetrahydro-5,8-methanocinnolin-8-yl)morpholine] | 0.356 |
| CC[C@@H](O[C@@]12CC[C@@H](c3cc(-c4c(F)cccc4F)nnc31)C2(C)C)C(=O)NC(CO)CO [Compound 53, (R)-2-(((5S,8R)-3-(2,6-difluorophenyl)-9,9-dimethyl-5,6,7,8-tetrahydro-5,8-methanocinnolin-8-yl)oxy)-N-(1,3-dihydroxypropan-2-yl)butanamide] | 0.116 |
| CC1(C)[C@H]2CC[C@]1([C@@H]1CN(C(=O)C(O)CO)CCO1)c1nnc(-c3c(F)cccc3F)cc12 (stereo partly drawn) [Compound 78, 1-((R)-2-((5R,8R)-3-(2,6-difluorophenyl)-9,9-dimethyl-5,6,7,8-tetrahydro-5,8-methanocinnolin-8-yl)morpholino)-2,3-dihydroxypropan-1-one] | 0.213 |
| CC[C@H](O[C@@]12CC[C@@H](c3cc(-c4c(F)cccc4F)nnc31)C2(C)C)C(=O)NCCS(C)(=O)=O [Compound 26, (S)-2-(((5S,8R)-3-(2,6-difluorophenyl)-9,9-dimethyl-5,6,7,8-tetrahydro-5,8-methanocinnolin-8-yl)oxy)-N-(2-(methylsulfonyl)ethyl)butanamide] | 0.0427 |
| CC1(C)[C@H]2CC[C@]1(OCc1cnccn1)c1nnc(-c3c(F)cccc3F)cc12 [Compound 17, (5S,8R)-3-(2,6-difluorophenyl)-9,9-dimethyl-8-(pyrazin-2-ylmethoxy)-5,6,7,8-tetrahydro-5,8-methanocinnoline] | 0.133 |
| CC[C@@H](O[C@@]12CC[C@@H](c3cc(-c4c(F)cccc4F)nnc31)C2(C)C)C(=O)N(C)C [Compound 36, (R)-2-(((5S,8R)-3-(2,6-difluorophenyl)-9,9-dimethyl-5,6,7,8-tetrahydro-5,8-methanocinnolin-8-yl)oxy)-N,N-dimethylbutanamide] | 0.0543 |
| CC1(C)[C@H]2CC[C@]1([C@H]1CCCN(C(N)=O)C1)c1nnc(-c3c(F)cccc3F)cc12 [Compound 120, 3-[5-(2,6-difluorophenyl)-11,11-dimethyl-3,4-diazatricyclo[6.2.1.02,7]undeca-2,4,6-trien-1-yl]piperidine-1-carboxamide] | 0.0049 |
| Cc1noc(N2CCO[C@H]([C@@]34CC[C@@H](c5cc(-c6c(F)cccc6F)nnc53)C4(C)C)C2)n1 [Compound 84, (R)-2-((5R,8R)-3-(2,6-difluorophenyl)-9,9-dimethyl-5,6,7,8-tetrahydro-5,8-methanocinnolin-8-yl)-4-(3-methyl-1,2,4-oxadiazol-5-yl)morpholine] | 0.277 |
| C[C@@H](O[C@@]12CC[C@@H](c3cc(-c4c(F)cccc4F)nnc31)C2(C)C)C(N)=O [Compound 42, (R)-2-(((5S,8R)-3-(2,6-difluorophenyl)-9,9-dimethyl-5,6,7,8-tetrahydro-5,8-methanocinnolin-8-yl)oxy)propanamide] | 0.0144 |
| CC[C@H](O[C@@]12CC[C@@H](c3cc(-c4c(F)cccc4F)nnc31)C2(C)C)C(=O)OC [Compound 110, methyl (2S)-2-[[(1R,8S)-5-(2,6-difluorophenyl)-11,11-dimethyl-3,4-diazatricyclo[6.2.1.02,7]undeca-2,4,6-trien-1-yl]oxy]butanoate] | 0.1 |
| CC1(C)[C@H]2CC[C@]1([C@H]1CN(S(C)(=O)=O)CCO1)c1nnc(-c3c(F)cccc3F)cc12 [Compound 73, (S)-2-((5R,8R)-3-(2,6-difluorophenyl)-9,9-dimethyl-5,6,7,8-tetrahydro-5,8-methanocinnolin-8-yl)-4-(methylsulfonyl)morpholine] | 1.03 |
| CC[C@H](CO)O[C@@]12CC[C@@H](c3cc(-c4c(F)cccc4F)nnc31)C2(C)C [Compound 35, (R)-2-(((5S,8R)-3-(2,6-difluorophenyl)-9,9-dimethyl-5,6,7,8-tetrahydro-5,8-methanocinnolin-8-yl)oxy)butan-1-ol] | 0.0198 |
| CC1(C)[C@H]2CC[C@]1(Oc1cncc(C(=O)NCCO)n1)c1nnc(-c3c(F)cccc3F)cc12 [Compound 30, 6-(((5S,8R)-3-(2,6-difluorophenyl)-9,9-dimethyl-5,6,7,8-tetrahydro-5,8-methanocinnolin-8-yl)oxy)-N-(2-hydroxyethyl)pyrazine-2-carboxamide] | 0.836 |
| CCNC(=O)[C@@H](CC)O[C@@]12CC[C@@H](c3cc(-c4c(F)cccc4F)nnc31)C2(C)C [Compound 22, (R)-2-(((5S,8R)-3-(2,6-difluorophenyl)-9,9-dimethyl-5,6,7,8-tetrahydro-5,8-methanocinnolin-8-yl)oxy)-N-ethylbutanamide] | 1.01 |
| CNC(=O)N1CCC[C@H]([C@@]23CC[C@@H](c4cc(-c5c(F)cccc5F)nnc42)C3(C)C)C1 [Compound 96, (R)-3-((5R,8R)-3-(2,6-difluorophenyl)-9,9-dimethyl-5,6,7,8-tetrahydro-5,8-methanocinnolin-8-yl)-N-methylpiperidine-1-carboxamide] | 0.013 |
| CC1(C)[C@H]2CC[C@]1(Oc1ncccn1)c1nnc(-c3c(F)cccc3F)cc12 [Compound 14, (5S,8R)-3-(2,6-difluorophenyl)-9,9-dimethyl-8-(pyrimidin-2-yloxy)-5,6,7,8-tetrahydro-5,8-methanocinnoline] | 0.084 |
| CC1(C)[C@H]2CC[C@]1([C@H]1CN(c3ccccn3)CCO1)c1nnc(-c3c(F)cccc3F)cc12 [Compound 82, (S)-2-((5R,8R)-3-(2,6-difluorophenyl)-9,9-dimethyl-5,6,7,8-tetrahydro-5,8-methanocinnolin-8-yl)-4-(pyridin-2-yl)morpholine] | 0.0167 |
| CC1(C)[C@H]2CC[C@]1([C@H]1CN(C(=O)C(O)CO)CCO1)c1nnc(-c3c(F)cccc3F)cc12 (stereo partly drawn) [Compound 76, 1-((S)-2-((5R,8R)-3-(2,6-difluorophenyl)-9,9-dimethyl-5,6,7,8-tetrahydro-5,8-methanocinnolin-8-yl)morpholino)-2,3-dihydroxypropan-1-one] | 0.277 |

Next, values leading:

| IC50 [µM] | Compound |
| --- | --- |
| 0.042 | CC(C)NC(=O)N1CCC[C@H]([C@@]23CC[C@@H](c4cc(-c5c(F)cccc5F)nnc42)C3(C)C)C1 [Compound 137, 3-[5-(2,6-difluorophenyl)-11,11-dimethyl-3,4-diazatricyclo[6.2.1.02,7]undeca-2,4,6-trien-1-yl]-N-isopropyl-piperidine-1-carboxamide] |
| 0.036 | CC1(C)[C@H]2CC[C@]1([C@H]1CCCN(c3cccc(=O)[nH]3)C1)c1nnc(-c3c(F)cccc3F)cc12 [Compound 174, 6-[3-[5-(2,6-difluorophenyl)-11,11-dimethyl-3,4-diazatricyclo[6.2.1.02,7]undeca-2,4,6-trien-1-yl]-1-piperidyl]-1H-pyridin-2-one] |
| 0.074 | CC1(C)[C@H]2CC[C@]1([C@H]1CCCN(C(=O)c3ccc(=O)[nH]n3)C1)c1nnc(-c3c(F)cccc3F)cc12 [Compound 125, 3-[3-[5-(2,6-difluorophenyl)-11,11-dimethyl-3,4-diazatricyclo[6.2.1.02,7]undeca-2,4,6-trien-1-yl]piperidine-1-carbonyl]-1H-pyridazin-6-one] |
| 0.062 | CN1CCN(C(N)=O)[C@@H]([C@@]23CC[C@@H](c4cc(-c5c(F)cccc5F)nnc42)C3(C)C)C1 [Compound 181, 2-[5-(2,6-difluorophenyl)-11,11-dimethyl-3,4-diazatricyclo[6.2.1.02,7]undeca-2,4,6-trien-1-yl]-4-methyl-piperazine-1-carboxamide] |
| 0.018 | Cc1coc(N2CCO[C@@H]([C@@]34CC[C@@H](c5cc(-c6c(F)cccc6F)nnc53)C4(C)C)C2)n1 [Compound 145, 2-[5-(2,6-difluorophenyl)-11,11-dimethyl-3,4-diazatricyclo[6.2.1.02,7]undeca-2,4,6-trien-1-yl]-4-(4-methyloxazol-2-yl)morpholine] |
| 0.14 | CC1(C)[C@H]2CC[C@]1([C@H]1CN(C(=O)c3ccc(Cl)nn3)CCO1)c1nnc(-c3c(F)cccc3F)cc12 [Compound 124, (6-chloropyridazin-3-yl)-[2-[5-(2,6-difluorophenyl)-11,11-dimethyl-3,4-diazatricyclo[6.2.1.02,7]undeca-2,4,6-trien-1-yl]morpholin-4-yl]methanone] |
| 0.011 | CC1(C)[C@H]2CC[C@]1([C@H]1CCCN(C(=O)c3c[nH]c(=O)cn3)C1)c1nnc(-c3c(F)cccc3F)cc12 [Compound 121, 5-[3-[5-(2,6-difluorophenyl)-11,11-dimethyl-3,4-diazatricyclo[6.2.1.02,7]undeca-2,4,6-trien-1-yl]piperidine-1-carbonyl]-1H-pyrazin-2-one] |
| 0.034 | CC1(C)[C@H]2CC[C@]1([C@H]1CN(c3ncn[nH]3)CCO1)c1nnc(-c3c(F)cccc3F)cc12 [Compound 144, 2-[5-(2,6-difluorophenyl)-11,11-dimethyl-3,4-diazatricyclo[6.2.1.02,7]undeca-2,4,6-trien-1-yl]-4-(1H-1,2,4-triazol-5-yl)morpholine] |
| 0.0083 | CC1(C)[C@H]2CC[C@]1([C@H]1CCCN(C(=O)c3cn[nH]c3)C1)c1nnc(-c3c(F)cccc3F)cc12 [Compound 167, [3-[5-(2,6-difluorophenyl)-11,11-dimethyl-3,4-diazatricyclo[6.2.1.02,7]undeca-2,4,6-trien-1-yl]-1-piperidyl]-(1H-pyrazol-4-yl)methanone] |
